# Results: US11560529B2, “Galactarate based metal sequestration composition” (ZestBio, Inc., priority 2019, dated 2023)
# Experiments:
# [1] = Calcium sequestration by titration with calcium chloride in presence of sodium oxalate until slight turbidity; assay type: physicochemical; conditions: 20° C.; for Calcium sequestration capacity, mg Ca^2+/g mixture: Table 4
# Method: Salt mixtures of galactaric acid were prepared to the desired composition by mixing sodium galactarate with either sodium borate decahydrate or sodium aluminate to a final weight of 10 grams. In an alternative preparation, galactaric acid was mixed with either sodium borate decahydrate or sodium aluminate. The resulting mixture was dissolved in a stoichiometric solution of sodium hydroxide.
# The efficacy of different mixtures of galactaric acid salts and oxyanion salts in sequestering calcium at 20° C. were tested. First, salt mixtures were dissolved in deionized water at 5 g/L. Sodium oxalate stock solution, prepared at 20 g/Land pH 10, was then added to the mixture solution to yield a final concentration of 1 g/L sodium oxalate. The pH was adjusted to 10 for mixtures containing borate as the oxyanion and to 11 for mixtures containing aluminate as the oxyanion with 1M sodium hydroxide or 1M hydrochloric acid. The resulting solutions were aliquoted to 50 mL and slowly titrated with stirring by addition of a 15 g/L anhydrous calcium chloride solution at a rate of 1 mL every 3 minutes until slight turbidity was observed, indicating saturation of calcium by the chelant mixture.
# The effect of pH on calcium sequestration by mixtures of galactaric acid salts and oxyanion salts at room temperature was assayed. Mixtures of 70% disodium galactarate and 30% sodium aluminate and 60% disodium galactarate and 40% sodium borate decahydrate were prepared. The resulting mixtures were dissolved in deionized water at 5 g/L and the calcium sequestering capacity was determined, as described above, with the exception that the pH was adjusted to the indicated pH with either 1M sodium hydroxide or 1M hydrochloric acid.
# The calcium chelating capacity of a variety of standard compounds and mixtures was determined for 5 g/L solutions dissolved in water, as described above. In all instances the temperature was 20° C. and except where noted, the pH of solution was adjusted to 10 before determination.
# [2] = Qualitative solubility of sodium galactarate in water-based solutions; conditions: for solubility at 15 min / solubility at 50 min: 20 °C, thermodynamic from solid, 0.5 g in 50 mL, 20 C, stirring; for solubility at 15 min: Solubility after 15 min.; for solubility at 50 min: Solubility after 50 min.
# Method: To characterize the solubility of sodium galactarate, 0.5M solutions of alkali salts and non-alkali base were prepared in deionized water. To 50 mL of each solution 0.5 g of sodium galactarate, was added at 20° C. with stirring.
# [3] = pH 10, aqueous buffer, 0.5M NH4OH (pH 10)
smiles,measurement,setting,value
"O.O.O=C([O-])CN(CCN(CC(=O)O)CC(=O)O)CC(=O)[O-].[Na+].[Na+] [EDTA, Ethylenedinitrilo Tetraacetic Acid Disodium Salt Dihydrate]","Calcium sequestration capacity, mg Ca^2+/g mixture","[1]; pH 10, 5 g/L in water",104 mg Ca^2+/g mixture
"O=C([O-])CC[C@@H](C(=O)[O-])N(CC(=O)[O-])CC(=O)[O-].[Na+].[Na+].[Na+].[Na+] [GLDA, N,N-Dicarboxymethyl glutamic acid tetrasodium salt]","Calcium sequestration capacity, mg Ca^2+/g mixture","[1]; pH 10, 5 g/L in water",80 mg Ca^2+/g mixture
same,"Calcium sequestration capacity, mg Ca^2+/g mixture","[1]; pH 11, 5 g/L in water",132 mg Ca^2+/g mixture
"O=C([O-])CC(O)(CC(=O)[O-])C(=O)[O-].[Na+].[Na+].[Na+] [Trisodium citrate, trisodium citrate]","Calcium sequestration capacity, mg Ca^2+/g mixture","[1]; pH 10, 5 g/L in water",32 mg Ca^2+/g mixture
O=C([O-])[C@@H](O)[C@H](O)[C@H](O)[C@@H](O)C(=O)[O-].[Na+].[Na+] [sodium galactarate],"Calcium sequestration, mg Ca^2+/g mixture","[1]; Table 2, no oxyanion salt, pH not stated, 5 g/L, 1 g/L sodium oxalate",5 mg Ca^2+/g mixture
same,Effect of lithium ions present in solution on dissolution,[2]; 20° C.,accelerated dissolution
same,Effect of sodium ions in solution (sodium chloride or sodium hydroxide) on dissolution,[2]; 20° C.,inhibited the dissolution
same,Solubility (in words),[2]; 20° C.,soluble in water-based solutions and under basic conditions
same,solubility at 15 min,"[2]; aqueous buffer, 0.5M LiCl",> 10000 µg/mL
same,solubility at 15 min,"[2]; aqueous buffer, 0.5M NaOH",< 10000 µg/mL
same,solubility at 50 min,"[2]; aqueous buffer, 0.5M LiCl",> 10000 µg/mL
same,solubility at 50 min,"[2]; aqueous buffer, 0.5M NaOH",< 10000 µg/mL
same,solubility at 15 min,[2]; [3],< 10000 µg/mL
same,solubility at 50 min,[2]; [3],> 10000 µg/mL
same,solubility at 15 min,"[2]; saline or isotonic, 0.5M NaCl",< 10000 µg/mL
same,solubility at 50 min,"[2]; saline or isotonic, 0.5M NaCl",< 10000 µg/mL
same,solubility at 15 min,"[2]; water, Water",< 10000 µg/mL
same,solubility at 50 min,"[2]; water, Water",> 10000 µg/mL
